In patent US9896440B2, “Aryl substituted heterocyclyl sulfones” (GRÜNENTHAL GMBH, priority 2014, dated 2018):

Molecular target: T1, Human CaV2.2 channels (Homo sapiens, UniProt Q00975)
T1 construct: expressed in transfected cells; Kir2.3 also stably co-expressed
Assay: Fluorescence assay for CaV2.2 channels using potassium depolarization to induce channel opening (FLIPR, Fluo 4)
Type: cell-based
Conditions: 30 mM KCl assay buffer (inactivated channel state), HEK293 cells; for inhibition at 3 µM: HEK293, 3 μM test compound, read-out: Activity Category: %-Inhib (CaV2.2) @3 μM @30 mM KCl; for Activity Category: %-Inhib (CaV2.2) @3 μM @30 mM KCl: 3 μM test compound
Text: In the process, the Ca^2+ influx is quantified in the FLIPR assay with the aid of a Ca^2+-sensitive dye (type Fluo-4, Molecular Probes Europe BV, Leiden, the Netherlands) in a fluorescent imaging plate reader (FLIPR 3, Molecular Devices, Sunnyvale, USA), as described hereinafter.
Human CaV2.2 channels were stably expressed in HEK293 cells together with alpha2-delta and beta subunits of voltage gated calcium channels. In addition, an inwardly rectifying potassium channel (Kir2.3) was stably expressed in these cells to augment control of the cell membrane potential by the concentration of extracellular potassium ions. Raise of the extracellular potassium concentration leads to depolarization of the membrane potential and thus regulates the voltage dependent state of CaV2.2 channels. For preparation, cells were seeded in black poly-D-lysine coated 96-well plates (Becton Dickinson, Biocoat 4640) in 100 μL medium [500 mL DMEM/F-12 plus Glutamax (Invitrogen 31331-093) plus 5.5 mL MEM NEAA 100× (Invitrogen 11140-035) plus 50 mL FBS decomplemented (Invitrogen 10270-106) plus 200 μg/mL Geneticin (Invitrogen 10131-027) plus 50 μg/mL Hygromycin B (Invitrogen 10687-010) plus 2 μg/mL Blasticidin (anti-bl5b Invivo-Gen) plus 0.2 μg/mL Puromycin (A 11138-03)] at a cell density of 30.000 cells per well. Plates were incubated at 37° C. (5% CO2) for 20 to 23 h. On the day of experiment medium was discarded and cells were loaded with Fluo 4 by addition of 100 μL of basic assay buffer (10 mM HEPES, 1 mM KCl, 149 mM NaCl, 0.8 mM CaCl2, 1.7 mM MgCl2, 10 mM Glucose, 0.1% BSA. pH 7.4) containing 2 μM Fluo 4 (Molecular Probes; F-14201), 0.01% pluronic acid (Molecular Probes; P-6866) and 2.5 mM probenecid (Molecular Probes; P36400). Cells were incubated in the dark at 25° C. for 60 min. Then dye containing buffer was discarded and 100 μL basic (1 mM KCl) or alternative (30 mM KCl) assay buffer was added. The alternative assay buffer contained altered concentrations of KCl (30 mM) and NaCl (120 mM) and was used in order to promote the inactivated channel state. After that 25 μL of basic or alternative assay buffer with or without test compound were added and cells were incubated again in the dark at 25° C. for 15 min. Fluorescence intensity was measured on a FLIPR 3 instrument (Molecular Devices Corp., Sunnyvale, Calif.) with excitation at 480 nm and emission at 535 nm. After continuously reading fluorescence for 30 sec, 50 μL of basic assay buffer containing 210 mM KCl (NaCl omitted) were added for depolarization. Peak fluorescent signal intensity was determined and the amplitude of the peak signal, normalized to base line, was used to measure channel inhibition by test compounds.

T1 sequence (Q00975 whole entry): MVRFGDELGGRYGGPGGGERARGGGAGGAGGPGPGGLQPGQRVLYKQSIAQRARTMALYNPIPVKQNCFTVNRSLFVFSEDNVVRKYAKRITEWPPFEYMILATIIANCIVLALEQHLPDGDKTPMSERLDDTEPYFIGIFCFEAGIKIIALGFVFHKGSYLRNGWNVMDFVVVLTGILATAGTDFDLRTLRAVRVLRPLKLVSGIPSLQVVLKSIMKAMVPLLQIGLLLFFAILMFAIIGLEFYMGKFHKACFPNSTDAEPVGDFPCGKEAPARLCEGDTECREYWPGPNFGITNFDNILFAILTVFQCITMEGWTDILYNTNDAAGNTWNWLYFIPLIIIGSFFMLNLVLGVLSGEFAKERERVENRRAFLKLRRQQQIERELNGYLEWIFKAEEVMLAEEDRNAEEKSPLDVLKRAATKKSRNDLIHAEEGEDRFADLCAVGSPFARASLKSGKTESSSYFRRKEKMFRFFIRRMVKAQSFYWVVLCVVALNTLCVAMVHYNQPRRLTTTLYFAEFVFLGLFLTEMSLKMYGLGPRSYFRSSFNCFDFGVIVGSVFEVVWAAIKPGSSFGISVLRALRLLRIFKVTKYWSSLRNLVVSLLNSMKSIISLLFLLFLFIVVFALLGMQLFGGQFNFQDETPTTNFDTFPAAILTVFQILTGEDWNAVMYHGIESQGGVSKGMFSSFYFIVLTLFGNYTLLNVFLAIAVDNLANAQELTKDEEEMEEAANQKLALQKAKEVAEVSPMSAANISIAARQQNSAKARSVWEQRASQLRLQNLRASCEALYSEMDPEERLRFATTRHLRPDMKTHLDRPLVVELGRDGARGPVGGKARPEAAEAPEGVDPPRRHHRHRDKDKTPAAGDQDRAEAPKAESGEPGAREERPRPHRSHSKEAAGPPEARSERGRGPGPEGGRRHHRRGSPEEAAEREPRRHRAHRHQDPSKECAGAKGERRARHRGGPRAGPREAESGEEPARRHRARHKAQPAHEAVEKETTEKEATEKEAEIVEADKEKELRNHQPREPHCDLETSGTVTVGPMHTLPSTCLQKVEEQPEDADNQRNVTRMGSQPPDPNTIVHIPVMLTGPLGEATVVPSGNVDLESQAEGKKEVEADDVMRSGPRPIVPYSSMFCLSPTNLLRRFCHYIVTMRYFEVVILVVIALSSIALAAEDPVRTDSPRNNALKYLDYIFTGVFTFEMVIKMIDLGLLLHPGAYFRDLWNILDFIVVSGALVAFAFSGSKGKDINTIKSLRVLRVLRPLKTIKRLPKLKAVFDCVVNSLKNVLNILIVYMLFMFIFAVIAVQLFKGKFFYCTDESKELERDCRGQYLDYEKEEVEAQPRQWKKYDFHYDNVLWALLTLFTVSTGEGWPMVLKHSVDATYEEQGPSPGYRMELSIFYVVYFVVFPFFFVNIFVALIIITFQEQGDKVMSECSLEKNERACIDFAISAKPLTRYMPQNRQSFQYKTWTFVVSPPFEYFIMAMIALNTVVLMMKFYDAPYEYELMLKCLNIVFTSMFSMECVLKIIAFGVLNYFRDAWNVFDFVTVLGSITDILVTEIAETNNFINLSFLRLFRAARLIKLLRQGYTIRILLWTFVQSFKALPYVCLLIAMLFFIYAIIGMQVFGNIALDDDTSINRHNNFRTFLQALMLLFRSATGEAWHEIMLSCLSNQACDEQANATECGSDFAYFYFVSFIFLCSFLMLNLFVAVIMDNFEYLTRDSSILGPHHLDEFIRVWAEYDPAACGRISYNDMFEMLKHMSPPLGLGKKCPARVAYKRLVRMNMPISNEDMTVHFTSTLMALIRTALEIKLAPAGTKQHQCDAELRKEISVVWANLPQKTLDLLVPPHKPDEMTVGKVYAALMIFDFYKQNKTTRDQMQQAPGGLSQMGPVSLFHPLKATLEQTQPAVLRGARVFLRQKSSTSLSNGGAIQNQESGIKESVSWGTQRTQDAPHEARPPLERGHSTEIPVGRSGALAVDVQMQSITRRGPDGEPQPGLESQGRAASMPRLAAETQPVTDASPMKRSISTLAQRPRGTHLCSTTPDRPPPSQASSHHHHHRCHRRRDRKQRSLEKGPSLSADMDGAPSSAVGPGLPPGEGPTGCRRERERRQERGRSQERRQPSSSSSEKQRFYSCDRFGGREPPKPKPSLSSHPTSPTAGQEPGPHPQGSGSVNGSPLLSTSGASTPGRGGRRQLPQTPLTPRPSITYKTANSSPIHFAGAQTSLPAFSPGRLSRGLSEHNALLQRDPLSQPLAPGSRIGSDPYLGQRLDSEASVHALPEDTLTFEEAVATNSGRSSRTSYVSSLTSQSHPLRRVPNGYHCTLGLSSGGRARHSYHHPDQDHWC

For `CC1(S(=O)(=O)c2cccc(C(F)(F)F)c2)CCOC(c2ccc(Cl)cc2S(C)(=O)=O)C1` (stereo not drawn) [SC-114, 2-(4-Chloro-2-methylsulfonyl-phenyl)-4-methyl-4-[[3-(trifluoromethyl)phenyl]sulfonyl]-tetrahydro-pyran], the inhibition at 3 µM was 75 to 95%.
For `CC1(S(=O)(=O)c2cccc(C(F)(F)F)c2)CCOC(c2ccc(Cl)cc2S(C)(=O)=O)C1` (stereo not drawn) [SC-115, 2-(4-Chloro-2-methylsulfonyl-phenyl)-4-methyl-4-[[3-(trifluoromethyl)phenyl]sulfonyl]-tetrahydro-pyran], the “Activity Category: %-Inhib (CaV2.2) @3 μM @30 mM KCl” value (shortened to “Activity Category: %-Inhib”) was “A (%-Inhibition >95%)”.
`CC(C)c1ccc(C(F)(F)F)cc1S(=O)(=O)C1CCOC(c2ccc(Cl)cc2)C1` (stereo not drawn) [SC-118, 2-(4-Chlorophenyl)-4-[[2-isopropyl-5-(trifluoromethyl)-phenyl]sulfonyl]-tetrahydro-pyran] showed an inhibition at 3 µM of 40 to 75%.
`CC1(S(=O)(=O)c2cccc(C(F)(F)F)c2)CCOCC1c1ccc(Cl)cc1` (stereo not drawn) [SC-120, 3-(4-Chlorophenyl)-4-methyl-4-[[3-(trifluoromethyl)phenyl]sulfonyl]-tetrahydro-pyran] gave an inhibition at 3 µM of 75 to 95%.
`CC1(c2ccc(Cl)cc2)CC(S(=O)(=O)c2cccc(C(F)(F)F)c2)CCO1` (stereo not drawn) [SC-140, 2-(4-Chlorophenyl)-2-methyl-4-[[3-(trifluoromethyl)phenyl]sulfonyl]-tetrahydro-pyran] showed an inhibition at 3 µM of 75 to 95%.
`CC1(c2ccc(Cl)cc2)CC(S(=O)(=O)c2cccc(C(F)(F)F)c2)CCO1` (stereo not drawn) [SC-141, 2-(4-Chlorophenyl)-2-methyl-4-[[3-(trifluoromethyl)phenyl]sulfonyl]-tetrahydro-pyran] was tested, and the “Activity Category: %-Inhib” value was “A (%-Inhibition >95%)”.
With `CC1(S(=O)(=O)c2cccc(C(F)(F)F)c2)CCOC(c2ccc(S(C)(=O)=O)c(F)c2)C1` (stereo not drawn) [SC-144, 2-(3-Fluoro-4-methylsulfonyl-phenyl)-4-methyl-4-[[3-(trifluoromethyl)phenyl]sulfonyl]-tetrahydro-pyran] the “Activity Category: %-Inhib” value was “A (%-Inhibition >95%)”.
`Cc1ccc(S(C)(=O)=O)cc1C1CC(C)(S(=O)(=O)c2cccc(C(F)(F)F)c2)CCO1` (stereo not drawn) [SC-200, 4-Methyl-2-(2-methyl-5-methylsulfonyl-phenyl)-4-[[3-(trifluoromethyl)phenyl]sulfonyl]-tetrahydro-pyran] showed an inhibition at 3 µM of 75 to 95%.
`CC1(S(=O)(=O)c2cccc(C(F)(F)F)c2)CCOC(c2cc(C(F)(F)F)cc(S(C)(=O)=O)c2)C1` (stereo not drawn) [SC-202, 4-Methyl-2-[3-methylsulfonyl-5-(trifluoromethyl)-phenyl]-4-[[3-(trifluoromethyl)phenyl]sulfonyl]-tetrahydro-pyran] was tested, and the inhibition at 3 µM was > 95%.
With `CC1(S(=O)(=O)c2cccc(C(F)(F)F)c2)CCOC(c2cc(F)ccc2S(C)(=O)=O)C1` (stereo not drawn) [SC-204, 2-(5-Fluoro-2-methylsulfonyl-phenyl)-4-methyl-4-[[3-(trifluoromethyl)phenyl]sulfonyl]-tetrahydro-pyran] the “Activity Category: %-Inhib” value was “A (%-Inhibition >95%)”.
In the case of `CC1(S(=O)(=O)c2cccc(C(F)(F)F)c2)CCOC(c2cc(F)ccc2S(C)(=O)=O)C1` (stereo not drawn) [SC-205, 2-(5-Fluoro-2-methylsulfonyl-phenyl)-4-methyl-4-[[3-(trifluoromethyl)phenyl]sulfonyl]-tetrahydro-pyran], the inhibition at 3 µM is reported as 75 to 95%.
With `Cc1cc(C2CC(C)(S(=O)(=O)c3cccc(C(F)(F)F)c3)CCO2)ccc1S(C)(=O)=O` (stereo not drawn) [SC-206, 4-Methyl-2-(3-methyl-4-methylsulfonyl-phenyl)-4-[[3-(trifluoromethyl)phenyl]sulfonyl]-tetrahydro-pyran] the inhibition at 3 µM was > 95%.
With `CC1(S(=O)(=O)c2cccc(C(F)(F)F)c2)CCOC(c2ccc(S(C)(=O)=O)c(F)c2)C1` (stereo not drawn) [SC-208, 2-(3-Fluoro-4-methylsulfonyl-phenyl)-4-methyl-4-[[3-(trifluoromethyl)phenyl]sulfonyl]-tetrahydro-pyran] the inhibition at 3 µM was > 95%.
In the case of `CC1(S(=O)(=O)c2cccc(C(F)(F)F)c2)CCOC(c2ccc(S(C)(=O)=O)c(F)c2)C1` (stereo not drawn) [SC-209, 2-(3-Fluoro-4-methylsulfonyl-phenyl)-4-methyl-4-[[3-(trifluoromethyl)phenyl]sulfonyl]-tetrahydro-pyran], the “Activity Category: %-Inhib” value is reported as “B (%-Inhibition >75% up to ≦95%)”.
For `Cc1ccc(C2CC(C)(S(=O)(=O)c3cccc(C(F)(F)F)c3)CCO2)cc1S(C)(=O)=O` (stereo not drawn) [SC-210, 4-Methyl-2-(4-methyl-3-methylsulfonyl-phenyl)-4-[[3-(trifluoromethyl)phenyl]sulfonyl]-tetrahydro-pyran], the inhibition at 3 µM was > 95%.
`CC1(S(=O)(=O)c2cccc(C(F)(F)F)c2)CCOC(c2ccc(F)c(S(C)(=O)=O)c2)C1` (stereo not drawn) [SC-212, 2-(4-Fluoro-3-methylsulfonyl-phenyl)-4-methyl-4-[[3-(trifluoromethyl)phenyl]sulfonyl]-tetrahydro-pyran] was tested, and the inhibition at 3 µM was > 95%.
In the case of `CC1(S(=O)(=O)c2cccc(C(F)(F)F)c2)CCOC(c2ccc(F)c(S(C)(=O)=O)c2)C1` (stereo not drawn) [SC-213, 2-(4-Fluoro-3-methylsulfonyl-phenyl)-4-methyl-4-[[3-(trifluoromethyl)phenyl]sulfonyl]-tetrahydro-pyran], the “Activity Category: %-Inhib” value is reported as “B (%-Inhibition >75% up to ≦95%)”.
For `CN(C)CC1(S(=O)(=O)c2cccc(C(F)(F)F)c2)CCOC(c2ccc(Cl)cc2)C1` (stereo not drawn) [SC-214, [[2-(4-Chlorophenyl)-4-[[3-(trifluoromethyl)phenyl]sulfonyl]-tetrahydro-pyran-4-yl]-methyl]-dimethyl-amine], the “Activity Category: %-Inhib” value was “A (%-Inhibition >95%)”.
`CN(C)CC1(S(=O)(=O)c2cccc(C(F)(F)F)c2)CCOC(c2ccc(Cl)cc2)C1` (stereo not drawn) [SC-215, [[2-(4-Chlorophenyl)-4-[[3-(trifluoromethyl)phenyl]sulfonyl]-tetrahydro-pyran-4-yl]-methyl]-dimethyl-amine] was tested, and the “Activity Category: %-Inhib” value was “C (%-Inhibition >40% up to ≦75%)”.
With `COCC1(S(=O)(=O)c2cccc(C(F)(F)F)c2)CCOC(c2ccc(Cl)cc2)C1` (stereo not drawn) [SC-216, 2-(4-Chlorophenyl)-4-(methoxymethyl)-4-[[3-(trifluoromethyl)phenyl]sulfonyl]-tetrahydro-pyran] the “Activity Category: %-Inhib” value was “B (%-Inhibition >75% up to ≦95%)”.
For `COCC1(S(=O)(=O)c2cccc(C(F)(F)F)c2)CCOC(c2ccc(Cl)cc2)C1` (stereo not drawn) [SC-217, 2-(4-Chlorophenyl)-4-(methoxymethyl)-4-[[3-(trifluoromethyl)phenyl]sulfonyl]-tetrahydro-pyran], the “Activity Category: %-Inhib” value was “C (%-Inhibition >40% up to ≦75%)”.
For `CC1(S(=O)(=O)c2cccc(C(F)(F)F)c2)CCOC(c2ccc(S(C)(=O)=O)cc2Cl)C1` (stereo not drawn) [SC-218, 2-(2-Chloro-4-methylsulfonyl-phenyl)-4-methyl-4-[[3-(trifluoromethyl)phenyl]sulfonyl]-tetrahydro-pyran], the inhibition at 3 µM was > 95%.
With `CC1(S(=O)(=O)c2cccc(C(F)(F)F)c2)CCOC(c2cccc(S(C)(=O)=O)c2)C1` (stereo not drawn) [SC-220, 4-Methyl-2-(3-methylsulfonyl-phenyl)-4-[[3-(trifluoromethyl)phenyl]sulfonyl]-tetrahydro-pyran] the inhibition at 3 µM was 75 to 95%.
`CC1(S(=O)(=O)c2cccc(C(F)(F)F)c2)CCOC(c2ccccc2S(C)(=O)=O)C1` (stereo not drawn) [SC-222, 4-Methyl-2-(2-methylsulfonyl-phenyl)-4-[[3-(trifluoromethyl)phenyl]sulfonyl]-tetrahydro-pyran] was tested, and the “Activity Category: %-Inhib” value was “A (%-Inhibition >95%)”.
